Reference: ChEMBL document CHEMBL1909046, “DrugMatrix in vitro pharmacology data”

Legend:
[1] = target: T1, Vasoactive intestinal polypeptide receptor 1 (Homo sapiens, UniProt P32241); assay type: cell membranes, Membrane; conditions: ht-29; note: in other assays of this panel Not Active means under 50% inhibition at 10 µM
T1 sequence (P32241 whole entry): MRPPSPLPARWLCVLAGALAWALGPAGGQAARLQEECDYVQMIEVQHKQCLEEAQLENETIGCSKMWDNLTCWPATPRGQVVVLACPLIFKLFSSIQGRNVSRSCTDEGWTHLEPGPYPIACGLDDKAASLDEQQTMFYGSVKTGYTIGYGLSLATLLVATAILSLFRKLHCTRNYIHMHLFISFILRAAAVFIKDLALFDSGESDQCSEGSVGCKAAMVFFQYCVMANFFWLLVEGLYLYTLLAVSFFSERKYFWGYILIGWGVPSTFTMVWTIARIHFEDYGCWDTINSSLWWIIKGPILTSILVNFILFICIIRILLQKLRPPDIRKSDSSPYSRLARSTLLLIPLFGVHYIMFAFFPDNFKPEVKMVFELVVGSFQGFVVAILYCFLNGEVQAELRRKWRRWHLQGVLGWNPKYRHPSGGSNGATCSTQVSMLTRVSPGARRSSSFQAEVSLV

[2] = target: Beta-3 adrenergic receptor (Homo sapiens, UniProt P13945); test: DRUGMATRIX: Adrenergic beta3 radioligand binding (ligand: [125I] Cyanopindolol); assay type: cell membranes, HEK293, Membrane; conditions: hek293; Not Active = under 50% inhibition at 10 µM
Sequence of Beta-3 adrenergic receptor (P13945 whole entry): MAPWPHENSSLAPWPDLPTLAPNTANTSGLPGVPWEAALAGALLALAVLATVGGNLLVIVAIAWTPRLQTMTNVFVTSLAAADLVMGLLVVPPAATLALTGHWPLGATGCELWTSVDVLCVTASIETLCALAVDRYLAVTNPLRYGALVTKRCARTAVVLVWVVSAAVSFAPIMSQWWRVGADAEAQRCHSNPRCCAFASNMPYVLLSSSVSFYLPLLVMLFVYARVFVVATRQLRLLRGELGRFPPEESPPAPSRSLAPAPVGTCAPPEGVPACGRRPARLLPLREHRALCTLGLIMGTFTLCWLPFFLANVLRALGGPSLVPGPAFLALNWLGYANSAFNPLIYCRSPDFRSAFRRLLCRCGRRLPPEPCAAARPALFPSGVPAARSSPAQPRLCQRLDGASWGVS

[3] = target: T2, Thromboxane-A synthase (Homo sapiens, UniProt P24557); test: biochemical; assay type: tissue-based, Platelet; conditions: platelet;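 note: enzyme inhibition assay with PGH2 supplied as substrate; in other assays of this panel Not Active means under 50% inhibition at 10 µM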
T2 sequence (P24557 whole entry): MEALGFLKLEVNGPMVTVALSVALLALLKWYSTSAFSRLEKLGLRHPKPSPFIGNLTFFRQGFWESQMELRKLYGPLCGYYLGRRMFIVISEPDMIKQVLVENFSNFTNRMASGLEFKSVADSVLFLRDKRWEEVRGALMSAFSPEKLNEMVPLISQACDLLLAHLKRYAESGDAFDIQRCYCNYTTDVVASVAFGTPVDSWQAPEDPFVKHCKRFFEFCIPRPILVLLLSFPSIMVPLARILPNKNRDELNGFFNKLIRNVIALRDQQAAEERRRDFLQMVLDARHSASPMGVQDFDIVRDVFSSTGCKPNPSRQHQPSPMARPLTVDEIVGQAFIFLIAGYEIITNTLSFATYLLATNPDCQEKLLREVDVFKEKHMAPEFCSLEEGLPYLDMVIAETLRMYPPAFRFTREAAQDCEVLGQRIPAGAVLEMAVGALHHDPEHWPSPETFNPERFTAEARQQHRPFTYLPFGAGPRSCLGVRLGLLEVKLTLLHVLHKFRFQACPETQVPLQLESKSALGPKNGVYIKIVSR

[4] = target: Protein kinase C alpha type (Homo sapiens, UniProt P17252); assay type: cell-based; conditions: sf9;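 note: inhibition of PKCalpha kinase activity measured in an enzyme assay with histone as the phosphorylation substrate; in other assays of this panel Not Active means under 50% inhibition at 10 µM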
[5] = target: Beta-2 adrenergic receptor (Homo sapiens, UniProt P07550); test: DRUGMATRIX: Adrenergic beta2 radioligand binding (ligand: [3H] CGP-12177); assay type: cell membranes, CHO, Membrane; conditions: cho; Not Active = under 50% inhibition at 10 µM
[6] = target: Receptor tyrosine-protein kinase erbB-2 (Homo sapiens, UniProt P04626); test: biochemical; assay type: cell-based, Insect cells; conditions: insect cells;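 note: inhibition of HER2 kinase enzyme activity, measured with Poly(Glu:Tyr) as the phosphorylation substrate; in other assays of this panel Not Active means under 50% inhibition at 10 µM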
[7] = target: Cytochrome P450 2E1 (Homo sapiens, UniProt P05181); conditions: bti-tn-5b1-4; note: in other assays of this panel Not Active means under 50% inhibition at 10 µM
Sequence of Cytochrome P450 2E1 (P05181 whole entry): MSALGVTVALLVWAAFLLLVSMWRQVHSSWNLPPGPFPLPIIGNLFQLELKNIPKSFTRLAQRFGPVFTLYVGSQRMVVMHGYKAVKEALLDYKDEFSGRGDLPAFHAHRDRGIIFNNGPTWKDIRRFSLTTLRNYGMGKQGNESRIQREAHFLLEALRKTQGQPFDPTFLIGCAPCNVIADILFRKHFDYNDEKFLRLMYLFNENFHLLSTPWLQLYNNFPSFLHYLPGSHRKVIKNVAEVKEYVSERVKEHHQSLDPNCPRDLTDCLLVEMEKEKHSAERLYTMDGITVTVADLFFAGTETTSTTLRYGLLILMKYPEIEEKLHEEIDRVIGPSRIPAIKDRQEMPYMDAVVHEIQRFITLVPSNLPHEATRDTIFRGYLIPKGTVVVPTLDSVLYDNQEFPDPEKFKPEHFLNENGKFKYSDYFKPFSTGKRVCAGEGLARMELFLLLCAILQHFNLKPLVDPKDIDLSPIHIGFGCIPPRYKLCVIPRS

N=C(N)c1ccc(OCCCCCOc2ccc(C(=N)N)cc2)cc1 [PENTAMIDINE]
Not Active: IC50 [1] | IC50 [2] | IC50 [3] | IC50 [4] | IC50 [5] | IC50 [6] | IC50 [7] | Ki [7]

NNCCc1ccccc1 [PHENELZINE]
Not Active: IC50 [1] | IC50 [2] | IC50 [3] | IC50 [4] | IC50 [5] | IC50 [6] | IC50 [7] | Ki [7]

CCc1ccc(CCOc2ccc(CC3SC(=O)NC3=O)cc2)nc1 (stereo unspecified) [PIOGLITAZONE]
Not Active: IC50 [1] | IC50 [2] | IC50 [3] | IC50 [4] | IC50 [5] | IC50 [6] | IC50 [7] | Ki [7]

CCCNC(C)C(=O)Nc1ccccc1C (stereo unspecified) [PRILOCAINE]
Not Active: IC50 [1] | IC50 [2] | IC50 [3] | IC50 [4] | IC50 [5] | IC50 [6] | IC50 [7] | Ki [7]

CCN(CC)CCNC(=O)c1ccc(N)cc1 [PROCAINAMIDE]
Not Active: IC50 [1] | IC50 [2] | IC50 [3] | IC50 [4] | IC50 [5] | IC50 [6] | IC50 [7] | Ki [7]

CCN(CC)CCCC(C)Nc1c2ccc(Cl)cc2nc2ccc(OC)cc12 (stereo unspecified) [QUINACRINE]
Not Active: IC50 [1] | IC50 [2] | IC50 [3] | IC50 [4] | IC50 [5] | IC50 [6] | IC50 [7] | Ki [7]

C[C@]12C=CC(=O)C=C1CC[C@H]1[C@@H]3C[C@@H](O)[C@](O)(C(=O)CO)[C@@]3(C)C[C@H](O)[C@@]12F [TRIAMCINOLONE]
Not Active: IC50 [1] | IC50 [2] | IC50 [3] | IC50 [4] | IC50 [5] | IC50 [6] | IC50 [7] | Ki [7]

CC[C@]1(O)C[C@@H]2CN(CCc3c([nH]c4ccccc34)[C@@](C(=O)OC)(c3cc4c(cc3OC)N(C)[C@H]3[C@@](O)(C(N)=O)[C@H](O)[C@]5(CC)C=CCN6CC[C@]43[C@@H]65)C2)C1 [VINDESINE]
Not Active: IC50 [1] | IC50 [2] | IC50 [3] | IC50 [4] | IC50 [5] | IC50 [6] | IC50 [7] | Ki [7]

CCN(C(C)=O)c1cccc(-c2ccnc3c(C#N)cnn23)c1 [ZALEPLON]
Not Active: IC50 [1] | IC50 [2] | IC50 [3] | IC50 [4] | IC50 [5] | IC50 [6] | IC50 [7] | Ki [7]

COBALTOUS CHLORIDE
Not Active: IC50 [1] | Ki [1] | IC50 [2] | Ki [2] | IC50 [3] | Ki [3] | IC50 [4] | Ki [4] | IC50 [5] | Ki [5] | IC50 [6] | Ki [6] | IC50 [7] | Ki [7]
